Data: paper PMC5351712 (Future Science OA, 2017)
Where two headings read alike, the source gives them in different places.

What was measured:
[1] = set-up: method as in ref 36 = [36]; 36 Remko M Acidity, lipophilicity, solubility, absorption, and polar surface area of some ACE inhibitors Chem. Pap. 61 133 141 2007; details: cited from earlier work
[2] = cited from earlier work; for Time of maximum plasma concentration: after oral administration of EPL
[3] = set-up: method as in GC–MS method; details: single oral 20 mg EPL, 24 healthy adult subjects, mean ± SD; analyte not stated; ref GC–MS method; cited from earlier work
[4] = Stability of EPL and EPLT in human plasma under different storage conditions; assay type: physicochemical; details: n = 6
Procedure: The bench-top stability was performed for each analyte in plasma was determined by three QC levels in six replicates for 8 h at ambient temperature (24 ± 2°C). […] For determination of freeze–thaw stability of the analytes, the spiked plasma samples were frozen for 24 h at -20°C and thawed unassisted at room temperature. When completely thawed, the samples were refrozen for 12–24 h at -20°C. On repeating the freeze−thaw cycle for 2 days, bioanalysis was done on the third day. For short-term stability, frozen plasma samples (-20°C) were kept at room temperature for 4 h before sample processing. Long-term stability was evaluated after storing the frozen plasma samples at -20°C for the whole duration of the study which was almost 30 days. […]

[5] = single oral 20 mg EPL maleate, 12 healthy volunteers; cited from earlier work
[6] = set-up: method as in ref 7 = [7]; 7 Yoon KH Kim W Park J Kim HJ Determination of enalapril in human plasma by high performance liquid chromatography-electrospray ionization mass spectrometry Bull. Korean Chem. Soc. 25 878 880 2004; details: after oral intake, mean value; cited from earlier work
[7] = cited from earlier work
[8] = Autosampler stability 24 h at 24°C, QC 3 ng/ml
[9] = Autosampler stability 24 h at 24°C, QC 200 ng/ml
[10] = Autosampler stability 24 h at 24°C, QC 400 ng/ml
[11] = Bench top stability for 8 h, QC 3 ng/ml
[12] = Bench top stability for 8 h, QC 200 ng/ml
[13] = Bench top stability for 8 h, QC 400 ng/ml
[14] = Freeze and thaw stability at -20°C (3 cycles), QC 3 ng/ml
[15] = Freeze and thaw stability at -20°C (3 cycles), QC 200 ng/ml
[16] = Freeze and thaw stability at -20°C (3 cycles), QC 400 ng/ml
[17] = Long-term stability at -20.0°C for 30 days, QC 3 ng/ml
[18] = Long-term stability at -20.0°C for 30 days, QC 200 ng/ml
[19] = Long-term stability at -20.0°C for 30 days, QC 400 ng/ml

| SMILES | Time of maximum plasma concentration [2] [h] | Accuracy after storage [4, 8] [%] | Mean concentration after storage [4, 8] [ng/mL] | Accuracy after storage [4, 9] [%] | Mean concentration after storage [4, 9] [ng/mL] | Accuracy after storage [4, 10] [%] | Mean concentration after storage [4, 10] [ng/mL] | Mean concentration after storage [4, 11] [ng/mL] | Accuracy after storage [4, 12] [%] | Mean concentration after storage [4, 12] [ng/mL] | Accuracy after storage [4, 13] [%] | Mean concentration after storage [4, 13] [ng/mL] | Accuracy after storage [4, 14] [%] | Mean concentration after storage [4, 14] [ng/mL] | Accuracy after storage [4, 15] [%] | Mean concentration after storage [4, 15] [ng/mL] | Accuracy after storage [4, 16] [%] | Mean concentration after storage [4, 16] [ng/mL] | Accuracy after storage [4, 17] [%] | Mean concentration after storage [4, 17] [ng/mL] | further results |
| --- | --- | --- | --- | --- | --- | --- | --- | --- | --- | --- | --- | --- | --- | --- | --- | --- | --- | --- | --- | --- | --- |
| CCOC(=O)[C@H](CCc1ccccc1)N[C@@H](C)C(=O)N1CCC[C@H]1C(=O)O [EPL, enalapril] | ≤ 1 | 92.6446 | 2.7500 | 100.4675 | 200.9350 | 92.6098 | 384.6733 | 2.7350 | 100.3303 | 200.9567 | 99.2485 | 412.2483 | 91.6339 | 2.7200 | 94.7244 | 189.7283 | 93.5010 | 388.3750 | 90.9601 | 2.7000 | pK a (strongest acidic) [1]: 3.0; polar surface area [1]: 95.9; Plasma level after 4 h ([2]; after 4 h not detected above this level): ≤ 10 ng/mL; Dose recovered in the urine and feces as EPL or EPLT [2]: approximately 94%; Influence of food on absorption after oral administration [2]: not influenced by the presence of food; Terminal half-life [2]: approximately 2 h; Bioavailability ([2]; healthy subjects, absorbed from the GI tract): 60–70%; T1/2 [3]: 4.2 ± 1.6 h; Accuracy after storage [4, 11]: 92.1392%; Accuracy after storage [4, 18]: 98.6628%; Mean concentration after storage [4, 18]: 197.6167 ng/mL; Accuracy after storage [4, 19]: 94.6810%; Mean concentration after storage [4, 19]: 393.2767 ng/mL; Cmax [5]: 152.1 ng/mL; Tmax [6]: 0.96 ± 0.36 h |
| C[C@H](N[C@@H](CCc1ccccc1)C(=O)O)C(=O)N1CCC[C@H]1C(=O)O [EPLT, enalaprilat] | 3 to 4 | 98.5516 | 2.6650 | 93.8950 | 187.7900 | 92.5255 | 365.4017 | 2.8833 | 102.2798 | 190.4450 | 98.0713 | 387.3033 | 87.8274 | 2.3750 | 95.3222 | 177.4900 | 88.2284 | 348.4317 | 92.3267 | 2.4967 | Half-life ([2]; EPLT after administration of EPL): 30 to 35 h; Accuracy after storage [4, 18]: 105.6740%; Mean concentration after storage [4, 18]: 196.7650 ng/mL; Accuracy after storage [4, 19]: 99.7772%; Mean concentration after storage [4, 19]: 394.0400 ng/mL; Cmax [5]: 88.5 ng/mL; AUC0–t [7]: 401 ± 89 ng·h/mL; AUC0–∞ [7]: 420 ± 91 ng·h/mL; Cmax [7]: 47.5 ± 12.4 ng/mL; T1/2 [7]: 6.71 ± 2.22 h; Tmax [7]: 4.20 ± 1.06 h |
